From ChEMBL document CHEMBL4507280 (2021)

Legend:
[1] = target: Serine/threonine-protein kinase D2 (Homo sapiens) (UniProt Q9BZL6); settings: Compound concentration 1000.0 nM
[2] = target: Dual specificity mitogen-activated protein kinase kinase 7 (Homo sapiens) (UniProt O14733); settings: Compound concentration 1000.0 nM
[3] = target: Inhibitor of nuclear factor kappa-B kinase subunit alpha (Homo sapiens) (UniProt O15111); settings: Compound concentration 1000.0 nM
[4] = target: Mitogen-activated protein kinase 7 (Homo sapiens) (UniProt Q13164); settings: Compound concentration 1000.0 nM
[5] = target: Bone morphogenetic protein receptor type-1B (Homo sapiens) (UniProt O00238); settings: Compound concentration 1000.0 nM
[6] = system: ALK tyrosine kinase receptor (Homo sapiens), Q9UM73 [L1196M]; settings: Compound concentration 1000.0 nM
[7] = target: Alpha-2B adrenergic receptor (Homo sapiens) (UniProt P18089); settings: Compound concentration 10.0 uM
[8] = system: Mast/stem cell growth factor receptor Kit (Homo sapiens), P10721 [D816H]; settings: Compound concentration 1000.0 nM
[9] = system: Tyrosine-protein kinase ABL1 (Homo sapiens), P00519 [M351T]; settings: Compound concentration 1000.0 nM
[10] = target: Serine/threonine-protein kinase 24 (Homo sapiens) (UniProt Q9Y6E0); settings: Compound concentration 1000.0 nM
[11] = target: Mitogen-activated protein kinase kinase kinase 20 (Homo sapiens) (UniProt Q9NYL2); settings: Compound concentration 1000.0 nM
[12] = target: AP2-associated protein kinase 1 (Homo sapiens) (UniProt Q2M2I8); settings: Compound concentration 1000.0 nM
[13] = target: MAP/microtubule affinity-regulating kinase 3 (Homo sapiens) (UniProt P27448); settings: Compound concentration 1000.0 nM
[14] = target: Mitogen-activated protein kinase kinase kinase 5 (Homo sapiens) (UniProt Q99683); settings: Compound concentration 1000.0 nM
[15] = target: Phosphatidylinositol 4-phosphate 5-kinase type-1 gamma (Homo sapiens) (UniProt O60331); settings: Compound concentration 1000.0 nM
[16] = system: Epidermal growth factor receptor (Homo sapiens), P00533 [UNDEFINED MUTATION]; settings: Compound concentration 1000.0 nM
[17] = target: Tyrosine-protein kinase FRK (Homo sapiens) (UniProt P42685); settings: Compound concentration 1000.0 nM
[18] = target: Fibroblast growth factor receptor 3 (Homo sapiens) (UniProt P22607); settings: Compound concentration 1000.0 nM
[19] = target: Serine/threonine-protein kinase N2 (Homo sapiens) (UniProt Q16513); settings: Compound concentration 1000.0 nM
Chain of Serine/threonine-protein kinase N2 (Homo sapiens) (Q16513 whole entry, looked up): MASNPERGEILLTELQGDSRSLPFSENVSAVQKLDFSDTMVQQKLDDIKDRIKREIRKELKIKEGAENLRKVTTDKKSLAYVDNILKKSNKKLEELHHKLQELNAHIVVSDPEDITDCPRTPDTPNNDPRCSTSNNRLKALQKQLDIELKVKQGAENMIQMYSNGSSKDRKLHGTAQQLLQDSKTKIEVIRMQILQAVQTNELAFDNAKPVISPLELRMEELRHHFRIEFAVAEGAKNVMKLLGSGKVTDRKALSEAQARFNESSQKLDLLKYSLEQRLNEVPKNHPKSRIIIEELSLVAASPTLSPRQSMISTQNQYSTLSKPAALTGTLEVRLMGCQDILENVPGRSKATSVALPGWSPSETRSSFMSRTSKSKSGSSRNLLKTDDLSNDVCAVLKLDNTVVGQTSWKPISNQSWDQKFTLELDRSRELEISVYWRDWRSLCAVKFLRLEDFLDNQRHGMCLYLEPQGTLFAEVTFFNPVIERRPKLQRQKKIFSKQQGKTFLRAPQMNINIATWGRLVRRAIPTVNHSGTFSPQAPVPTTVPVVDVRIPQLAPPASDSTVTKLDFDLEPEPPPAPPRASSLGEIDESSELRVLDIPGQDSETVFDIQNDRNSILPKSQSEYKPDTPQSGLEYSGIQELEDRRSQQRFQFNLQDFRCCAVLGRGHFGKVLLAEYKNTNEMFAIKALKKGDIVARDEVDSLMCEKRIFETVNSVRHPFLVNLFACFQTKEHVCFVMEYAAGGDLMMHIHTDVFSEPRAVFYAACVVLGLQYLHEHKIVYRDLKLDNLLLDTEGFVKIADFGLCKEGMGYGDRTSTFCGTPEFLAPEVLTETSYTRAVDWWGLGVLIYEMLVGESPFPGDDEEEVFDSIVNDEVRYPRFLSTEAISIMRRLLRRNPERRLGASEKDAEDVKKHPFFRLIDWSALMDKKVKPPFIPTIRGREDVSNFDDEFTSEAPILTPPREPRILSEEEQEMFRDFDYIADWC

[20] = target: 5-hydroxytryptamine receptor 6 (Homo sapiens) (UniProt P50406); settings: Compound concentration 10.0 uM
Chain of 5-hydroxytryptamine receptor 6 (Homo sapiens) (P50406 whole entry): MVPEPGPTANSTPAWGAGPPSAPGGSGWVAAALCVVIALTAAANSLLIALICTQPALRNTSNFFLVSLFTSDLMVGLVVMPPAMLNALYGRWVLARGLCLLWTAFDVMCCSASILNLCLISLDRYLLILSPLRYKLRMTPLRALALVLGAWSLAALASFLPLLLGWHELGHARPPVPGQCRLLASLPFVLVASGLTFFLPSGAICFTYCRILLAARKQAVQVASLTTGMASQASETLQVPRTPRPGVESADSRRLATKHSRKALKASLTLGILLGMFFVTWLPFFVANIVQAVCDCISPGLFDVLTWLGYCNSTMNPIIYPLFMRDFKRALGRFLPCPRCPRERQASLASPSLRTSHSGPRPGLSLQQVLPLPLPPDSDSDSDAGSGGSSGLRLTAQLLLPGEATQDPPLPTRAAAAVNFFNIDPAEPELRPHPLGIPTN

[21] = target: Serine/threonine-protein kinase LATS1 (Homo sapiens) (UniProt O95835); settings: Compound concentration 1000.0 nM
[22] = target: Leucine-rich repeat serine/threonine-protein kinase 2 (Homo sapiens) (UniProt Q5S007); settings: Compound concentration 1000.0 nM
Chain of Leucine-rich repeat serine/threonine-protein kinase 2 (Homo sapiens) (Q5S007 whole entry): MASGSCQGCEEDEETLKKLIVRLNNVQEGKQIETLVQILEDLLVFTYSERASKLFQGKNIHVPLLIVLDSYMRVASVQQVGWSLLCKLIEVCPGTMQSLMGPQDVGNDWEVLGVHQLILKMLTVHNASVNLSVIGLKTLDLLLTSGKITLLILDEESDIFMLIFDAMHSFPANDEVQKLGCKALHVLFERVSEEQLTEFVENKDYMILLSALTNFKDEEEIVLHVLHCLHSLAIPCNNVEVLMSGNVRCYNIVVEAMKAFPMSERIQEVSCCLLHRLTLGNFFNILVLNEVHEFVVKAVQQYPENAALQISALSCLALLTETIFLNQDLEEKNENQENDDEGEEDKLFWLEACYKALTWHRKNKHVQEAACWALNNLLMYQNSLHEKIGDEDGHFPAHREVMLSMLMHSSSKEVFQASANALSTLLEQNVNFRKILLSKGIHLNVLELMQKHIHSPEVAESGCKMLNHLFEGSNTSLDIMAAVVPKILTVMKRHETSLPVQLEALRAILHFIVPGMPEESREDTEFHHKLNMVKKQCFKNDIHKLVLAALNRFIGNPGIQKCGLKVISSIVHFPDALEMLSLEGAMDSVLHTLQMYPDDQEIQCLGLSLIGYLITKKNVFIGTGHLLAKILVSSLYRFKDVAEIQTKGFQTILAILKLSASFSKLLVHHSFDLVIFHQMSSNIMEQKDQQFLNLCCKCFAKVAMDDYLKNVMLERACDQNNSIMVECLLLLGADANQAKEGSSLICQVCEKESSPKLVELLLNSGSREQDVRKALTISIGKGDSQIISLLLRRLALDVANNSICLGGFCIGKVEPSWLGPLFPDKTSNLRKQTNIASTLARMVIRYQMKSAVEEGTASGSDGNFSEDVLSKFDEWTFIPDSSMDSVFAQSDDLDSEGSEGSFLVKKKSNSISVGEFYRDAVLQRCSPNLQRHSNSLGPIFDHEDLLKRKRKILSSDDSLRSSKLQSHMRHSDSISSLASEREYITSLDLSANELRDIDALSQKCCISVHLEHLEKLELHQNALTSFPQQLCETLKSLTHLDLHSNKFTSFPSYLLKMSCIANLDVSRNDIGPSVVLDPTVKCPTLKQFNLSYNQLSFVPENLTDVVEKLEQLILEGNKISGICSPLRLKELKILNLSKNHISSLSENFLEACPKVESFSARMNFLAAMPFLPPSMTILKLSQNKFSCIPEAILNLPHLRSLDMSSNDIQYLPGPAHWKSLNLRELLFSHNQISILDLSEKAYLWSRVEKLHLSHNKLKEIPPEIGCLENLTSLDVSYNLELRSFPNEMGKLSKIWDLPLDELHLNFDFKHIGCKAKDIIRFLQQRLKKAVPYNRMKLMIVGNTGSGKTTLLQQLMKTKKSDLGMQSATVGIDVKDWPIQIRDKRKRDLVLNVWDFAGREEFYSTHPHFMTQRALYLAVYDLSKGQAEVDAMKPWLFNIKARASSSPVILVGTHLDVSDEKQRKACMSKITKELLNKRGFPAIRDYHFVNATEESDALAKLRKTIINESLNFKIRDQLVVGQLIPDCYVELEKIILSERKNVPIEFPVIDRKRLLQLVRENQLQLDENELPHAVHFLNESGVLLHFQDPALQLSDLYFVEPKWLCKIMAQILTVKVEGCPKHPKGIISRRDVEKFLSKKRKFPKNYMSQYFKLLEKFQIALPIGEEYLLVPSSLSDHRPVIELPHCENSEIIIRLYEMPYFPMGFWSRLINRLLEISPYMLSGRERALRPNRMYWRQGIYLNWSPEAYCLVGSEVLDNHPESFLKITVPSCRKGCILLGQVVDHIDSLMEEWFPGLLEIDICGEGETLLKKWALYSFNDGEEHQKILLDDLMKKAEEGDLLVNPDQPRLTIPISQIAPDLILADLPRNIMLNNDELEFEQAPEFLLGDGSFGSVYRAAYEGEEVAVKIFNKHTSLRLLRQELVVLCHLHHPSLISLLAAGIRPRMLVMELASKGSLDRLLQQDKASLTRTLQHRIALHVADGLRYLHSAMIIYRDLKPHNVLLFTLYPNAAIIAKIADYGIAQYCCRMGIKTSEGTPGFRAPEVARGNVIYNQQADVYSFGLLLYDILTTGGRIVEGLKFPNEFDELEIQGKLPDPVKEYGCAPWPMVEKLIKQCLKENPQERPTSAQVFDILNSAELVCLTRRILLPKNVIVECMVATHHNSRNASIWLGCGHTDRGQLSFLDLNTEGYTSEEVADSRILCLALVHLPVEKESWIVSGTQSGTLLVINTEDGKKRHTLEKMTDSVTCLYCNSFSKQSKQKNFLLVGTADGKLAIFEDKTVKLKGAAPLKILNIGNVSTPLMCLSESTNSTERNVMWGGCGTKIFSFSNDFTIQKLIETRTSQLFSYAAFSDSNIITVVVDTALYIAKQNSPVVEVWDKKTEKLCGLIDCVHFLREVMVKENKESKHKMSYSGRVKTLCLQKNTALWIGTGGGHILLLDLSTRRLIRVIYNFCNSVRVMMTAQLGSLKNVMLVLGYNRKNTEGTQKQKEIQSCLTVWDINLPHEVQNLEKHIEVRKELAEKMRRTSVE

[23] = target: Serine/threonine-protein kinase ULK1 (Homo sapiens) (UniProt O75385); settings: Compound concentration 1000.0 nM
[24] = target: NT-3 growth factor receptor (Homo sapiens) (UniProt Q16288); settings: Compound concentration 1000.0 nM
[25] = target: Mitogen-activated protein kinase kinase kinase kinase 4 (Homo sapiens) (UniProt O95819); settings: Compound concentration 1000.0 nM
[26] = target: Serine/threonine-protein kinase pim-3 (Homo sapiens) (UniProt Q86V86); settings: Compound concentration 1000.0 nM
[27] = target: Serine/threonine-protein kinase DCLK1 (Homo sapiens) (UniProt O15075); settings: Compound concentration 1000.0 nM
[28] = target: Serine/threonine-protein kinase RIO1 (Homo sapiens) (UniProt Q9BRS2); settings: Compound concentration 1000.0 nM
[29] = target: Cyclin-dependent kinase 7 (Homo sapiens) (UniProt P50613); settings: Compound concentration 1000.0 nM
Chain of Cyclin-dependent kinase 7 (Homo sapiens) (P50613 whole entry): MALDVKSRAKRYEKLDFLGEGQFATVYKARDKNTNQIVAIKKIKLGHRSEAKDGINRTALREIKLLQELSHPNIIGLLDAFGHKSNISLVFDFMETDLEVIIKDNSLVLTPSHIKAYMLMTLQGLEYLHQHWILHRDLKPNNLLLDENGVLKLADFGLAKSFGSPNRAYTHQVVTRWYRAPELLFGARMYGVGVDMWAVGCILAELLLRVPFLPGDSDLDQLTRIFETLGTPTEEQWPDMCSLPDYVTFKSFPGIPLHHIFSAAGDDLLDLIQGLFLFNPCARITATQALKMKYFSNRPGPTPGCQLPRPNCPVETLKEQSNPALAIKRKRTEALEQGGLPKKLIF

[30] = target: 5-hydroxytryptamine receptor 1E (Homo sapiens) (UniProt P28566); settings: Compound concentration 10.0 uM
[31] = target: Non-receptor tyrosine-protein kinase TYK2 (Homo sapiens) (UniProt P29597); settings: Compound concentration 1000.0 nM
[32] = target: Megakaryocyte-associated tyrosine-protein kinase (Homo sapiens) (UniProt P42679); settings: Compound concentration 1000.0 nM
[33] = target: Cyclin-dependent kinase 5 (Homo sapiens) (UniProt Q00535); settings: Compound concentration 1000.0 nM
[34] = target: Protein kinase C theta type (Homo sapiens) (UniProt Q04759); settings: Compound concentration 1000.0 nM
[35] = target: Serine/threonine-protein kinase haspin (Homo sapiens) (UniProt Q8TF76); settings: Compound concentration 1000.0 nM
[36] = target: 5-hydroxytryptamine receptor 1D (Homo sapiens) (UniProt P28221); settings: Compound concentration 10.0 uM
[37] = target: Testis-specific serine/threonine-protein kinase 1 (Homo sapiens) (UniProt Q9BXA7); settings: Compound concentration 1000.0 nM
[38] = target: cAMP-dependent protein kinase catalytic subunit beta (Homo sapiens) (UniProt P22694); settings: Compound concentration 1000.0 nM
[39] = target: Mitogen-activated protein kinase 14 (Homo sapiens) (UniProt Q16539); settings: Compound concentration 1000.0 nM
[40] = target: Tyrosine-protein kinase ABL1 (Homo sapiens) (UniProt P00519); settings: Compound concentration 1000.0 nM
[41] = target: Serine/threonine-protein kinase Nek7 (Homo sapiens) (UniProt Q8TDX7); settings: Compound concentration 1000.0 nM
[42] = target: Tyrosine-protein kinase Fyn (Homo sapiens) (UniProt P06241); settings: Compound concentration 1000.0 nM
[43] = target: Phosphorylase b kinase regulatory subunit alpha, liver isoform (Homo sapiens) (UniProt P46019); settings: Compound concentration 1000.0 nM
[44] = target: Calcium/calmodulin-dependent protein kinase type 1D (Homo sapiens) (UniProt Q8IU85); settings: Compound concentration 1000.0 nM
[45] = system: Hepatocyte growth factor receptor (Homo sapiens), P08581 [Y1235D]; settings: Compound concentration 1000.0 nM

Chain of Inhibitor of nuclear factor kappa-B kinase subunit alpha (Homo sapiens) (O15111 whole entry): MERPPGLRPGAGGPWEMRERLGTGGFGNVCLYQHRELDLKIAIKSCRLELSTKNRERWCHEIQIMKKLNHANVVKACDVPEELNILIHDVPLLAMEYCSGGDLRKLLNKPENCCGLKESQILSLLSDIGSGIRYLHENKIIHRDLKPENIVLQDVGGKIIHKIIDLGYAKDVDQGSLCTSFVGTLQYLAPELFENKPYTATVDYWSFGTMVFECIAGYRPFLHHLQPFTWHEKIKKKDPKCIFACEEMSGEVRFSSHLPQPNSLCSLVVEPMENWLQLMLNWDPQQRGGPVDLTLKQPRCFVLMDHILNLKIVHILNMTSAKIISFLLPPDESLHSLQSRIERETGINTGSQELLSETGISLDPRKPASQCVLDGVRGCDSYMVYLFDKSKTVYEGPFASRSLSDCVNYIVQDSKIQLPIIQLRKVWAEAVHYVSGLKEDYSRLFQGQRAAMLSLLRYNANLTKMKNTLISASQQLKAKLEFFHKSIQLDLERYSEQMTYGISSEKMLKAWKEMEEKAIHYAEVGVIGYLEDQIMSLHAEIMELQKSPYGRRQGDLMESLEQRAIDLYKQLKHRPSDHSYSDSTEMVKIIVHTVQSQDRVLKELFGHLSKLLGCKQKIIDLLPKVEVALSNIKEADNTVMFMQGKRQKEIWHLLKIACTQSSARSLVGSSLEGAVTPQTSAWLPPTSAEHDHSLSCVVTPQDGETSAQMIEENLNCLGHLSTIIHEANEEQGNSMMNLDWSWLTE

In the case of `CCC(=O)N[C@H]1CC[C@@H](C(=O)N(C)c2ccc(-c3nc4ccccc4o3)cc2)C1` [BI 99179], the residual activity [1] was 100%, the residual activity [2] was 82% and the residual activity [3] was 100%. It also gave a residual activity [4] of 78%, a residual activity [5] of 91% and a residual activity [6] of 93%. The inhibition [7] was 5.31%, the residual activity [8] was 85% and the residual activity [9] was 94%. The residual activity [10] was 95%, the residual activity [11] was 89% and the residual activity [12] was 100%. For the same molecule, the residual activity [13] was 96%, the residual activity [14] was 100% and the residual activity [15] was 100%. It also gave a residual activity [16] of 78%, a residual activity [17] of 100% and a residual activity [18] of 98%. For the same molecule, the residual activity [19] was 100%, the inhibition [20] was 3.86% and the residual activity [21] was 48%. It also gave a residual activity [22] of 71%, a residual activity [23] of 78% and a residual activity [24] of 32%. The residual activity [25] was 91%, the residual activity [26] was 100% and the residual activity [27] was 100%. The residual activity [28] was 99%, the residual activity [29] was 79% and the inhibition [30] was -3.14%. The residual activity [31] was 95%, the residual activity [32] was 100% and the residual activity [33] was 87%. The residual activity [34] was 84%, the residual activity [35] was 100% and the inhibition [36] was 6.85%. It also gave a residual activity [37] of 91%, a residual activity [38] of 100% and a residual activity [39] of 100%. The residual activity [40] was 85%, the residual activity [41] was 98% and the residual activity [42] was 100%. For the same molecule, the residual activity [43] was 100%, the residual activity [44] was 100% and the residual activity [45] was 100%.

`CCC(=O)N[C@@H]1CC[C@H](C(=O)N(C)c2ccc(-c3nc4ccccc4o3)cc2)C1` [BI 99990] gave a residual activity [1] of 100%, a residual activity [2] of 98% and a residual activity [3] of 100%. The residual activity [4] was 100%, the residual activity [5] was 100% and the residual activity [6] was 100%. The inhibition [7] was 7.05%, the residual activity [8] was 100% and the residual activity [9] was 100%. The residual activity [10] was 100%, the residual activity [11] was 78% and the residual activity [12] was 100%. It also gave a residual activity [13] of 100%, a residual activity [14] of 100% and a residual activity [15] of 100%. It also gave a residual activity [16] of 62%, a residual activity [17] of 100% and a residual activity [18] of 100%. It also gave a residual activity [19] of 100%, an inhibition [20] of 10.1% and a residual activity [21] of 58%. For the same molecule, the residual activity [22] was 100%, the residual activity [23] was 100% and the residual activity [24] was 100%. For the same molecule, the residual activity [25] was 100%, the residual activity [26] was 96% and the residual activity [27] was 88%. For the same molecule, the residual activity [28] was 100%, the residual activity [29] was 85% and the inhibition [30] was -5.68%. For the same molecule, the residual activity [31] was 100%, the residual activity [32] was 100% and the residual activity [33] was 100%. It also gave a residual activity [34] of 76%, a residual activity [35] of 100% and an inhibition [36] of -8.27%. It also gave a residual activity [37] of 76%, a residual activity [38] of 100% and a residual activity [39] of 95%. The residual activity [40] was 76%, the residual activity [41] was 100% and the residual activity [42] was 85%. The residual activity [43] was 100%, the residual activity [44] was 100% and the residual activity [45] was 100%.
